Assay results as given in publication PMC9914633 (International Journal of Environmental Research and Public …, 2023).

Molecular target: T1, xoSNAT1 (Xanthomonas oryzae, UniProt A0ACG7R854)
T1 construct: gene DZA53_20490
Details: serotonin 0.5 mM; acetyl-CoA 0.5 mM; 100 mM potassium phosphate pH 8.8; 35 °C

SMILES: NCCc1c[nH]c2ccc(O)cc12 [serotonin]
- LC-MS/MS of serotonin and product: GST and xoSNAT2 have no SNAT activity, while xoSNAT1 showed only low activity
